What all share (assay): relative viability (nuclei count vs DMSO), 5 days (fraction); higher = more cells survive
Compound in the assay “Crenolanib + Navitoclax”: CC1(COc2ccc3c(c2)ncn3-c2ccc3cccc(N4CCC(N)CC4)c3n2)COC1 [Crenolanib] + CC1(C)CCC(c2ccc(Cl)cc2)=C(CN2CCN(c3ccc(C(=O)NS(=O)(=O)c4ccc(N[C@H](CCN5CCOCC5)CSc5ccccc5)c(S(=O)(=O)C(F)(F)F)c4)cc3)CC2)C1 [Navitoclax] (partner 0.5 µM)
In a few lines: (§1)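 Relative viability was taken as the ratio of nuclei in treated wells to nuclei in vehicle wells. Lung cancer cell lines in 1536-well plates received compounds by pin tool one day after seeding, either one drug alone or a fixed anchor-drug dose plus five library-drug doses (not always all listed) in √10 steps. Nuclei were counted on 4× images after 5 days of treatment, and values are medians of duplicate plates.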

Compound in the assay “Crenolanib + Pictilisib”: CC1(COc2ccc3c(c2)ncn3-c2ccc3cccc(N4CCC(N)CC4)c3n2)COC1 [Crenolanib] + CS(=O)(=O)N1CCN(Cc2cc3nc(-c4cccc5[nH]ncc45)nc(N4CCOCC4)c3s2)CC1 [Pictilisib] (partner 1 µM)
The method in brief: as §1

Compound in the assay “Crenolanib + Olaparib”: CC1(COc2ccc3c(c2)ncn3-c2ccc3cccc(N4CCC(N)CC4)c3n2)COC1 [Crenolanib] + O=C(c1cc(Cc2n[nH]c(=O)c3ccccc23)ccc1F)N1CCN(C(=O)C2CC2)CC1 [Olaparib] (partner 8 µM)
In a few lines: as §1

Compound in the assay “Tivantinib + Dasatinib”: O=C1NC(=O)[C@@H](c2cn3c4c(cccc24)CCC3)[C@@H]1c1c[nH]c2ccccc12 [Tivantinib] + Cc1nc(Nc2ncc(C(=O)Nc3c(C)cccc3Cl)s2)cc(N2CCN(CCO)CC2)n1 [Dasatinib] (partner 0.075 µM)
In a few lines:
as §1

Turning to UMC-11, the relative viability with Crenolanib + Navitoclax (first compound 0.01 µM) was 0.333; with Crenolanib + Navitoclax (first compound 0.03162 µM), 0.331; with Crenolanib + Navitoclax (first compound 0.1 µM), 0.301; with Crenolanib + Navitoclax (first compound 0.3162 µM), 0.341; with Crenolanib + Navitoclax (first compound 1 µM) it was 0.31; with Crenolanib + Pictilisib (first compound 0.01 µM) it was 0.76. Further, the relative viability came to 0.834 with Crenolanib + Pictilisib (first compound 0.03162 µM); 0.787 with Crenolanib + Pictilisib (first compound 0.1 µM); 0.848 with Crenolanib + Pictilisib (first compound 0.3162 µM); 0.733 in the assay with Crenolanib + Pictilisib (first compound 1 µM); 0.394 with Crenolanib + Olaparib (first compound 0.01 µM); 0.35 with Crenolanib + Olaparib (first compound 0.03162 µM). In addition, the relative viability with Crenolanib + Olaparib (first compound 0.1 µM) amounted to 0.379; with Crenolanib + Olaparib (first compound 0.3162 µM), 0.556; in the assay with Crenolanib + Olaparib (first compound 1 µM), 0.341; in the assay with Tivantinib + Dasatinib (first compound 0.01 µM), 0.43; with Tivantinib + Dasatinib (first compound 0.03162 µM), 0.491; with Tivantinib + Dasatinib (first compound 0.1 µM), 0.421. The relative viability with Tivantinib + Dasatinib (first compound 0.3162 µM) stood at 0.614.

For the origin of these results see the supplement of paper PMC10307832.
